The record followed here is article PMC12040169 (PLOS Biology, 2025).

The nature of this data set: in vitro. The note with it: human, hela cells, % viability.

By viability is commonly meant a read-out of living cells in per cent, often relative to untreated cells. For the molecule `Cc1ccc(-n2ncc3c(NCCc4ccc(S(N)(=O)=O)cc4)ncnc32)c(C)c1` [CBK265676], the viability at 28.5 h, 10 µM came out at 92.4%.

Consider `O=C1CC2(CCN(C(=O)c3ccccc3F)CC2)Oc2c(Cl)cc(Cl)cc21` [CBK156453], for which the viability at 28.5 h, 10 µM came out at 91.8%.

On to `CCCc1cc(C(=O)NC(c2ccccc2)c2cccnc2)[nH]n1` (stereo not shown) [CBK282462], for which the viability at 28.5 h, 10 µM worked out at 93.8%.

As for `COc1ccc(OC(=O)c2cccc(F)c2)c(C(C)=O)c1` [CBK088044], the viability at 28.5 h, 10 µM turned out to be 89%.

Turning to `O=C(Nc1ccc(F)cc1)OCC1COc2ccccc2C1` (stereo not shown) [CBK017146], the viability at 28.5 h, 10 µM came out at 85.5%.

For `CCC1CN(Cc2ccccc2)CCN1c1cncc(Cl)n1` (stereo not shown) [CBK003645], the viability at 28.5 h, 10 µM amounted to 112%.

With `CC(C)Oc1ccc(C(=O)N2CC(C)C(N3CCOCC3)C2)cn1` (stereo not shown) [CBK304497], the viability at 28.5 h, 10 µM was found to be 110%.

On to `CC(C)c1ccc(S(=O)(=O)NCc2ccc(F)c(F)c2F)cc1` [CBK044717], for which the viability at 28.5 h, 10 µM was found to be 102%.

In the case of `COc1ccc2oc(C(=O)N(C)CC(C)OC)c(C)c2c1` (stereo not shown) [CBK282037], the viability at 28.5 h, 10 µM stood at 94.4%.

Consider `CN(Cc1ccccc1)C(=O)CNS(=O)(=O)c1ccc([N+](=O)[O-])cc1` [CBK268586], for which the viability at 28.5 h, 10 µM turned out to be 107%.

As for `Brc1cccc(/C=N/N2CCN(Cc3cccc4ccccc34)CC2)c1` [CBK263011], the viability at 28.5 h, 10 µM turned out to be 98%.

Regarding `O=C(Nc1ccc(Br)c2cccnc12)c1ccc(COc2ccccc2)cc1` [CBK266062], the viability at 28.5 h, 10 µM is 94.2%.

As to `O=C(c1cccc(F)c1)N1CCC(c2nnc3n2CCCCC3)CC1` [CBK284627], the viability at 28.5 h, 10 µM turned out to be 103%.

For the molecule `CCOc1ccc(C(N)CC(=O)O)c2ccccc12` (stereo not shown) [CBK287120], the viability at 28.5 h, 10 µM amounted to 89.1%.

`CCc1nc2c(OCCOc3ccccc3)cccn2c1N(C)C(=O)COc1ccccc1` [CBK147355]: the viability at 28.5 h, 10 µM came out at 95.2%.

For `CCCCC(c1cccnc1)N(C)C(=O)c1cccn(C)c1=O` (stereo not shown) [CBK307496], the viability at 28.5 h, 10 µM turned out to be 114%.

In the case of `CCCC(=O)Nc1sc(C)c(C)c1C(=O)Nc1ccccc1OC` [CBK262455], the viability at 28.5 h, 10 µM worked out at 104%.

As for `Cc1cnc2n(c1=O)C(CC(=O)NCc1ccncc1)CS2` (stereo not shown) [CBK287671], the viability at 28.5 h, 10 µM stood at 111%.

`CN1CCN(C(=O)CCn2c(C(F)F)cc3cccnc32)CC1` [CBK285023]: the viability at 28.5 h, 10 µM was 101%.

Take `Fc1ccc(-c2cn3ccnc3c(Nc3cccc(OC(F)(F)C(F)F)c3)n2)cc1Cl` [CBK037265]: the viability at 28.5 h, 10 µM was 98.1%.

Take `CCCC(=O)N1CCC(Cc2ccc(-c3cccc(C)c3)cc2)(C(=O)NC(C)C)CC1` [CBK285760]: the viability at 28.5 h, 10 µM was found to be 93.9%.

As to `O=c1c(N2CCC(Sc3ccccc3)CC2)nccn1Cc1ccc(OC(F)(F)F)cc1` [CBK155257], the viability at 28.5 h, 10 µM was 94.7%.

For the molecule `Cc1ccccc1C1(O)CCN(C(=O)C(c2cccs2)c2cccs2)CC1` [CBK286483], the viability at 28.5 h, 10 µM was 106%.

On to `O=C(Cc1ccccc1)Nc1nnc(Cc2ccc3c(c2)OCCO3)o1` [CBK287661], for which the viability at 28.5 h, 10 µM amounted to 94.2%.

On to `CCCS(=O)(=O)NC1CCN(c2nc(C(F)(F)F)nc3[nH]cnc23)CC1` [CBK304587], for which the viability at 28.5 h, 10 µM was found to be 105%.

As to `Cn1c(Cc2ccc(Cl)cc2)nnc1SCc1nc2ccccc2c(=O)n1-c1cccc(C(F)(F)F)c1` [CBK268425], the viability at 28.5 h, 10 µM amounted to 112%.

On to `O=[N+]([O-])c1ccc(CN2CCN(Cc3ccc4c(c3)OCO4)CC2)o1` [CBK074557], for which the viability at 28.5 h, 10 µM is 88.7%.

Consider `COc1ccc(Cn2nc(N)c3ccccc32)cc1` [CBK093530], for which the viability at 28.5 h, 10 µM came out at 93.3%.

Turning to `CC(=O)OC(COc1ccc(F)cc1)Cn1cnc2ccccc21` (stereo not shown) [CBK266162], the viability at 28.5 h, 10 µM turned out to be 104%.

On to `CS(=O)(=O)c1ccc(C(=O)N(Cc2ccccc2)c2ccc(S(=O)(=O)N3CCOC3=O)cc2)cc1` [CBK024590], for which the viability at 28.5 h, 10 µM stood at 110%.

With `Fc1ccc(C(c2nnnn2C2CCCCC2)N2CCCCC2)cc1` (stereo not shown) [CBK141670], the viability at 28.5 h, 10 µM was 94.9%.

On to `Cc1nc(O)cc(CCn2cc(-c3cncnc3)nn2)n1` [CBK306712], for which the viability at 28.5 h, 10 µM amounted to 96.2%.

On to `COc1ccc(N2CCN(c3cncc(-c4cccs4)n3)CC2)cc1OC` [CBK065687], for which the viability at 28.5 h, 10 µM worked out at 104%.

`CC(NC(=O)C1(Cn2ccnc2)CC1)c1cccnc1` (stereo not shown) [CBK306812]: the viability at 28.5 h, 10 µM turned out to be 97.3%.

As for `FC(F)(F)c1ccnc(OC2CCNCC2)n1` [CBK113294], the viability at 28.5 h, 10 µM stood at 118%.

`Cc1ccccc1-c1ccccc1CC1(C(=O)N(C)C)CCN(C(=O)C2CCCCC2)CC1` [CBK285718]: the viability at 28.5 h, 10 µM was determined as 98.2%.

For the molecule `CC(=O)Nc1ccc(S(=O)(=O)N2CCN(C(=O)c3ccco3)CC2)cc1` [CBK068319], the viability at 28.5 h, 10 µM turned out to be 90.5%.

For `CC(CCN(CCN)C(=O)N1CCC(CNS(C)(=O)=O)(c2ccccc2)CC1)c1ccccc1` (stereo not shown) [CBK002335C], the viability at 28.5 h, 10 µM was determined as 82.9%.

With `CC(C)[C@H](NS(=O)(=O)c1ccc(Cl)cc1)C(=O)NCc1ccc(Cn2cccn2)cc1` [CBK295611], the viability at 28.5 h, 10 µM turned out to be 104%.

As to `CC(C)(C)C1=CC2=NC3(CCC3)[C@@H]3C[C@@H](O)[C@@H](O)[C@@H]3N2O1` [CBK303243], the viability at 28.5 h, 10 µM came out at 104%.

As to `CNS(=O)(=O)c1c(C)nn(-c2ccccc2)c1C` [CBK086715], the viability at 28.5 h, 10 µM was found to be 102%.

As to `CC(C)N(C(=O)CN1C(=O)N2CCCN=C2c2ccccc21)C(C)C` [CBK284400], the viability at 28.5 h, 10 µM amounted to 100%.

In the case of `CCOC(=O)c1sc(-c2ccc(Br)cc2)nc1O` [CBK075087], the viability at 28.5 h, 10 µM turned out to be 103%.

Regarding `CC(=O)N1CC[C@H]2NC(=O)CNC(=O)C3(CCCC[C@H]2C1)CCN(Cc1ccc(Cl)cc1)CC3` [CBK292119], the viability at 28.5 h, 10 µM worked out at 90.5%.

Turning to `CCn1ncc2c1CCCC2NC1CCN(c2ccccc2)C1=O` (stereo not shown) [CBK305144], the viability at 28.5 h, 10 µM turned out to be 93.6%.

Regarding `CCc1nc2ccc(NC(=O)c3csc(C(C)=O)c3)cc2[nH]1` [CBK282538], the viability at 28.5 h, 10 µM was found to be 114%.

Turning to `Cc1cc2ccccc2n1CC(=O)N1CCn2cnnc2C1` [CBK282209], the viability at 28.5 h, 10 µM amounted to 108%.

In the case of `CCOC(=O)c1ccc(N2CCN(C(C)=O)CC2)c(NC(=O)c2cccc(F)c2)c1` [CBK270263], the viability at 28.5 h, 10 µM stood at 93.8%.

Consider `O=[N+]([O-])c1cccc(-c2cc(N3CCC(N4CCCCC4)CC3)ncn2)c1` [CBK037710], for which the viability at 28.5 h, 10 µM came to 107%.

Regarding `Cc1ccc(C2c3c(oc4ccccc4c3=O)C(=O)N2CCCCCC(=O)O)cc1` (stereo not shown) [CBK287158], the viability at 28.5 h, 10 µM is 94.1%.

Consider `O=C(C(CO)c1ccccc1)N1CCC2(CCN(CCCCOc3ccccc3)C2)C1` (stereo not shown) [CBK161722], for which the viability at 28.5 h, 10 µM is 90%.

Consider `COc1ccccc1CC(CC(=O)O)C(=O)O` (stereo not shown) [CBK261508], for which the viability at 28.5 h, 10 µM stood at 91.6%.

For the molecule `COc1nnc(-c2ccc(C)cc2)c2ccccc12` [CBK263466], the viability at 28.5 h, 10 µM was 92%.

Consider `N#Cc1ccccc1Cn1ccc2c(N3CCNCC3)cccc21` [CBK200015C], for which the viability at 28.5 h, 10 µM was 102%.

As to `Cc1ccc2c(c1)CC(=O)NC21CCN(Cc2cccc(Br)c2)CC1` [CBK039392], the viability at 28.5 h, 10 µM came to 94.7%.

Take `CCOC(=O)c1sc(Cl)nc1C(F)(F)F` [CBK026746]: the viability at 28.5 h, 10 µM was determined as 103%.

As to `COCCn1c(CO)nnc1[C@H]1C[C@H](NC(=O)c2ccc(F)cc2F)C1` [CBK306665], the viability at 28.5 h, 10 µM was 102%.

As to `OC1(c2ccc(F)cc2)CC2CCC(C1)N2CC1=CCCOC1` (stereo not shown) [CBK282942], the viability at 28.5 h, 10 µM came to 106%.

Take `c1ccc2c(CCN3CCN(c4nccnc4OC4CCCCC4)CC3)c[nH]c2c1` [CBK082847T]: the viability at 28.5 h, 10 µM amounted to 100%.

`O=C(NCc1nc2ccccc2[nH]1)c1ccc2[nH]ccc2c1` [CBK149079]: the viability at 28.5 h, 10 µM amounted to 89%.

`O=C(Cc1ccccc1)Nc1nnc(C2=COCCO2)o1` [CBK287416]: the viability at 28.5 h, 10 µM was found to be 92.2%.

Regarding `CC1CCN(S(=O)(=O)c2cccc(C(=O)N3CCC(C(=O)O)CC3)c2)CC1` [CBK266790], the viability at 28.5 h, 10 µM came to 87.4%.

For the molecule `O=C(Nc1ccc2oc(-c3cccnc3)nc2c1)c1ccc(N2CCOCC2)c([N+](=O)[O-])c1` [CBK268664], the viability at 28.5 h, 10 µM was determined as 100%.

As for `NS(=O)(=O)c1ccc(NC(=S)NC(=O)/C=C/c2ccc([N+](=O)[O-])cc2)cc1` [CBK262176], the viability at 28.5 h, 10 µM was found to be 99.2%.

As for `COc1ccc(Nc2ncnc3oc(C)c(C)c23)cc1` [CBK288163], the viability at 28.5 h, 10 µM is 93.3%.

`CSCCN1CCCN(c2nccc(OCc3ccc(Cl)c(Cl)c3)n2)CC1` [CBK083960]: the viability at 28.5 h, 10 µM was 70.5%.

Take `CCc1nc2ccc(C(=O)NCCCN3CCCC3=O)cn2c1N(C)C(=O)COc1ccccc1` [CBK145855]: the viability at 28.5 h, 10 µM was determined as 98.7%.

For the molecule `N#Cc1cccnc1N1CC2COCCC2(C(=O)N2CCC=C(F)C2)C1` (stereo not shown) [CBK304744], the viability at 28.5 h, 10 µM came out at 91.5%.

On to `CCN(CC)c1cc(N2CCCNCC2)ccc1S(=O)(=O)c1cccc(F)c1` [CBK018509C], for which the viability at 28.5 h, 10 µM came out at 101%.

In the case of `CCOc1ccc(-c2ccnc(NCC(C)(C)CO)n2)cc1C(=O)O` [CBK307530], the viability at 28.5 h, 10 µM was determined as 88.6%.

For `Cc1nc2n(CCN3CCCCC3)c3ccccc3n2c1C(=O)c1cccs1` [CBK278242B], the viability at 28.5 h, 10 µM amounted to 88.6%.

For `N#Cc1cccc(CN2C[C@H](O)C[C@H]2c2nc(Cc3ccccc3)no2)c1` [CBK288842], the viability at 28.5 h, 10 µM was 87.5%.

As for `Cc1nc2cc(C(=O)NC(C)c3ccccn3)ccc2n1C` (stereo not shown) [CBK281822], the viability at 28.5 h, 10 µM turned out to be 84.2%.

For `O=C(O)CC[n+]1c(/C=C/Nc2ccccc2)oc2ccccc21` [CBK260898B], the viability at 28.5 h, 10 µM worked out at 93.3%.

As to `CC(C)S(=O)(=O)n1ccn(-c2ccc3c(c2)OCO3)c1=O` [CBK106630], the viability at 28.5 h, 10 µM is 90.9%.

On to `CCN(CC)CCN(CC(=O)Nc1c(C)cccc1Cl)Cc1ccccc1` [CBK023143], for which the viability at 28.5 h, 10 µM was determined as 97.7%.

Consider `COC(=O)C(NC(=O)c1cnc(-c2ccc(Cl)cc2)c(-c2ccc(O)cc2)c1)c1ccccc1` (stereo not shown) [CBK036723], for which the viability at 28.5 h, 10 µM was 90.6%.

In the case of `Cc1cc2c(o1)c1cnn(CC(=O)N3CCCC3)c(=O)c1n2C(C)C` [CBK284232], the viability at 28.5 h, 10 µM worked out at 89%.

In the case of `Cc1cc(COc2nccnc2N2CCN(Cc3ccc(C(C)C)cc3)CC2)no1` [CBK084186], the viability at 28.5 h, 10 µM turned out to be 94.9%.
